# Earlier results in PubChem BioAssay AID1259409 (Chemical Carcinogenesis Research Information System (CCRIS), 2018).
# Test system: rodent chemically induced tumor inhibition, incidence and multiplicity
# Test: CCRIS tumor inhibitor studies
# Conditions: Route [Inhibitor]: ORAL
smiles,measurement,setting,value
CC(=O)Oc1ccccc1C(=O)O,"tumour outcome (control, treated, inhibition, significance)","Carcinogen: 4-(METHYLNITROSAMINO)-1-(3-PYRIDYL)-1-BUTANONE, 64091-91-4, Dose [Inhibitor]: 0, 147 MMOL/KG BW/D IN DIETS FOR DURATION OF STUDY BEGINNING 2 WK PRIOR TO CARCINOGEN TREATMENT (STUDY DURATION: 25 WK), Species: MOUSE, Strain/Sex: STRAIN-A/FEMALE, Target Tissue: Type of Lesion: LUNG:TUMOR, Dose [Carcinogen]: 2.2 MMOL/KG BW (TOTAL DOSE) ADMINISTERED IN DRINKING WATER FOR 7 WK, Promoter: NONE USED","29/29 (100%), 24/24 (100%), 0%, not significant"
same,"tumour outcome (control, treated, inhibition, significance)","Carcinogen: 4-(METHYLNITROSAMINO)-1-(3-PYRIDYL)-1-BUTANONE, 64091-91-4, Dose [Inhibitor]: 0, 294 MG/KG DIET FOR DURATION OF STUDY BEGINNING 2 WK PRIOR TO CARCINOGEN TREATMENT (STUDY DURATION: 25 WK), Species: MOUSE, Strain/Sex: STRAIN-A/FEMALE, Target Tissue: Type of Lesion: LUNG: TUMOR, Dose [Carcinogen]: 9.1 MG/MOUSE IN DRINKING WATER FOR 7 WK, Promoter: NONE USED","29/29 (100%), 24/24 (100%), 0%, not significant"
same,"tumour outcome (control, treated, inhibition, significance)","Carcinogen: 4-(METHYLNITROSAMINO)-1-(3-PYRIDYL)-1-BUTANONE, 64091-91-4, Dose [Inhibitor]: 0, 294 MMOL/KG BW/D IN DIET FOR DURATION OF STUDY BEGINNING 2 WK PRIOR TO CARCINOGEN TREATMENT (STUDY DURATION: 25 WK), Species: MOUSE, Strain/Sex: STRAIN-A/FEMALE, Target Tissue: Type of Lesion: LUNG: TUMOR, Dose [Carcinogen]: 2.2 MMOL/KG BW (TOTAL DOSE) ADMINISTERED IN DRINKING WATER FOR 7 WK, Promoter: NONE USED","29/29 (100%), 24/24 (100%), 0%, not significant"
same,"tumour outcome (control, treated, inhibition, significance)","Carcinogen: 4-(METHYLNITROSAMINO)-1-(3-PYRIDYL)-1-BUTANONE, 64091-91-4, Dose [Inhibitor]: 0, 588 MMOL/KG BW/D IN DIET FOR DURATION OF STUDY BEGINNING 2 WK PRIOR TO CARCINOGEN TREATMENT (STUDY DURATION: 25 WK), Species: MOUSE, Strain/Sex: STRAIN-A/FEMALE, Target Tissue: Type of Lesion: LUNG: TUMOR, Dose [Carcinogen]: 2.2 MMOL/KG BW (TOTAL DOSE) ADMINISTERED IN DRINKING WATER FOR 7 WK, Promoter: NONE USED","29/29 (100%), 24/24 (100%), 0%, not significant"
same,"tumour outcome (control, treated, inhibition, significance)","Carcinogen: 7,12-DIMETHYLBENZ[A]ANTHRACENE, 57-97-6, Dose [Inhibitor]: 0.6% NEUTRALIZED WITH 12 MG SODIUM CARBONATE DAILY (STUDY DURATION: 14 WK), Species: HAMSTER, Strain/Sex: SYRIAN/FEMALE, MALE, Target Tissue: Type of Lesion: BUCCAL CELLS: EPIDERMOID TUMORS, Dose [Carcinogen]: 0.5% SOLUTION IN MINERAL OIL 3/WK FOR UP TO 14 WK, Promoter: NONE USED","6.4%, 4.8%, 25%, p<0.1"
same,"tumour outcome (control, treated, inhibition, significance)","Carcinogen: AZOXYMETHANE, 25843-45-2, Dose [Inhibitor]: 0, 200 PPM IN DIET BEGINNING 2 WK PRIOR TO CARCINOGEN TREATMENT AND CONTINUING FOR 52 WK (STUDY DURATION: 54 WK), Species: RAT, Strain/Sex: F344/MALE, Target Tissue: Type of Lesion: COLON: ADENOCARCINOMA, Dose [Carcinogen]: 15 MG/KG BW 1/WK FOR 2 WK, Promoter: NONE USED","78%, 53%, 32%, p<0.05"
same,"tumour outcome (control, treated, inhibition, significance)","Carcinogen: AZOXYMETHANE, 25843-45-2, Dose [Inhibitor]: 0, 250 PPM IN DIET FOR 13 WK BEGINNING 36 WK POST LAST CARCINOGEN DOSE (STUDY DURATION: 49 WK), Species: RAT, Strain/Sex: F344/MALE, Target Tissue: Type of Lesion: COLON: ADENOMA, Dose [Carcinogen]: 12 MG/KG BW IN 0.9% SALINE TWICE, Promoter: CHOLIC ACID, 81-25-4","81%, 94%, -16%, not significant"
same,"tumour outcome (control, treated, inhibition, significance)","Carcinogen: AZOXYMETHANE, 25843-45-2, Dose [Inhibitor]: 0, 250 PPM IN DIET FOR 13 WK BEGINNING 36 WK POST LAST CARCINOGEN DOSE (STUDY DURATION: 49 WK), Species: RAT, Strain/Sex: F344/MALE, Target Tissue: Type of Lesion: SMALL INTESTINE: ADENOCARCINOMA, Dose [Carcinogen]: 12 MG/KG BW IN 0.9% SALINE TWICE, Promoter: CHOLIC ACID, 81-25-4","23%, 19%, 17%, not significant"
same,"tumour outcome (control, treated, inhibition, significance)","Carcinogen: AZOXYMETHANE, 25843-45-2, Dose [Inhibitor]: 0, 250 PPM IN DIET FOR 13 WK BEGINNING 36 WK POST LAST CARCINOGEN DOSE (STUDY DURATION: 49 WK), Species: RAT, Strain/Sex: F344/MALE, Target Tissue: Type of Lesion: SMALL INTESTINE: ADENOMA, Dose [Carcinogen]: 12 MG/KG BW IN 0.9% SALINE TWICE, Promoter: CHOLIC ACID, 81-25-4","17%, 47%, -176%, p<0.05"
